Reference: patent US20050090471A1, “Inhibitors of cyclin-dependent kinases, compositions and uses related thereto” (GPC Biotech, Inc, priority 2001, published 2005)
pIC50: −log10 of the molar value.

Experiments:
arrested IMR90 cells = assay: Arrested cell assay (serum starvation), IMR90; assay type: cell-based, human; parameters: unit not given here; conditions: serum-starved arrested cells; unit not given
Description: Cyclin-dependent kinase (Cdk) activity is required to promote the progression of cells through distinct phases of the cell division cycle. The proliferation of normal, non-transformed, cells in culture requires the presence of growth factors, the removal of which, through serum deprivation, leads to a loss of Cdlc activity and consequent exit from the cell cycle as cells enter the quiescent phase, Go.
IMR90 cells were plated in triplicate for each compound concentration to be tested in MEM-α media containing 10% fetal calf serum at a density of either 2,000 or 20,000 cells per well in 24-well dishes and incubated overnight at 37° C., 5% CO2. The media was removed from the 20,000 cell-per-well dish, cells were washed once with serum-free media, and serum-fiee media was placed on cells. The plates containing cells both in the presence and absence of serum were incubated for 3 additional days.
To ensure that the cells had indeed exited the cell cyde upon serum withdrawal, the percentage of BrdU positive cells, indicative of those progressing through S phase, was determined in each experiment. For the purpose of this experiment, cellular viability was evaluated simultaneously with the use of SNARF-1, a fluorescent substrate of intracellular esterases which are only active in viable cells. Together, the evaluation of BrdU incorporation and SNARF-1 cleavage by flow cytometry provided an assessment of the viability of arrested cells on a single cell basis. For this analysis, the cells were stained with SNARF-1 as follows and then prepared for determination of BrdU incorporation as described above.
HCT-116 and IMR90 cells were plated at the density described below in T25 flasks in serum-containing media (RPMI-1640 or MEM-a with 10% FCS, respectively). After 24 hours of growth, the media was removed and, after washing the cells, replaced with serum-free media. • HCT-116+FCS 5,000 cells • HCT-116−FCS 100,000 cells • IMR90+FCS 100,000 cells • IMR90−FCS 200,000 cells
The IMR90 cells were grown for an additional 3 days and the HCT-116 cells were grown for an additional 6 days before pulsing with BrdU. A 50 μg aliquot of SNARF-1 (Molecular Probes catalog #C1272) was dissolved in 50 μl DMSO at room temperature for 10 minutes and then diluted into 10 ml PBS. The SNARF-1 was further diluted 1:64,000 before 200 μl was added to each tube of cells which had been cultured in the presence or absence of serum and pulsed with BrdU for 20 hours. The cells were incubated at 37° C. for 30 minutes and then washed with 3 ml of PBS.
These cells were then fixed and prepared for the measurement of BrdU incorporation as described above. The percentage of viable (FL-2) and BrdU positive (FL-1) cells was determined on a FACScan flow cytometer.

ADR-res = assay: NCI panel (SRB assay), ADR-res cell line; assay type: cell-based, human; conditions: 48 hours incubation with compound, unit not given
Excerpt: (§1) The evaluation of compounds at the National Cancer Institute in their panel of 60 cell lines provides a wealth of information regarding efficacy in a wide range of tumor types and genetic backgrounds. Included within this panel are cell lines derived from leukemia, melanoma and cancers of the lung, colon, brain, ovary, breast, prostate and kidney. Use of this panel provides a measure of the efficacy of compounds in cells with alterations in many genes that are associated with neoplastic transformation including p53 and Her2/Neu as well as those involved in metabolism and those which confer multi-drug resistance. The data generated in these cell lines with the protocol described below can be used to evaluate the activity of compounds.
(§2) Cells were grown in RPMI-1640 10% FCS and plated in 96 well micro-titer plates at densities ranging from 5,000 to 40,000 cells/well. The plates were incubated for 24 hours at 37° C., 5% CO2 for 24 hours. Media containing twice the desired final concentration of the compound (5 doses spanning 4 logs) was prepared and 100 μl was added to each well containing 100 μl media plus cells to yield the desired final concentration. The plates were then incubated for an additional 48 hours.
(§3) The effect of the compound on cellular viability was determined with the Sulforhodamine B (SRB) assay which measures total protein. Cells were fixed with cold TCA to a fmal concentration of 10% and incubated at 4° C. for 60 minutes. The supernatant was discarded and the plates were washed five times with water and air-dried. SRB solution at […] in 1% acetic acid was added to each well and the plates were incubated for 10 minutes at room temperature. The plates were washed five times with 1% acetic acid and air-dried. The bound stain was solubilized with 10 mM trizma base and the absorbance was read on a plate reader at […].

[1] = tested on: NCI panel of 60 cell lines; assay: NCI panel of human tumor cell lines (SRB assay), MG-MID; assay type: cell-based; conditions: 48 hours incubation with compound
Excerpt: as §1, §2, §3

HCT-116 = assay: Calcein AM viability assay, HCT-116; assay type: cell-based, human; conditions: 72-hours incubation, plus 1 mg/ml alpha acidic glycoprotein and 45 mg/ml human serum albumin, read-out: HCT-116 IC50 protein adjusted
Description: The potency of Cdk inhibitors, as measured by loss of cellular viability, was determined with the Calcein AM assay (Molecular Probes). Calcein AM is a substrate of intracellular esterases, which is cleaved only in viable cells to generate a fluorescent product that can be quantified with a fluorescent plate reader. The fluorescent signal is proportional to the number of viable cells, and thus loss of signal in response to the exposure of cells to Cdk inhibitors correlates with a loss of viability. This assay distinguishes cell cycle arrest from loss of viability and is thus well suited for the evaluation of Cdk inhibitors.
Cellular IC50's were determined in the human colorectal carcinoma cell line, HCT-116, and the normal human fibroblast, IMR90. Protein adjusted IC50's were also determined in HCT-116. Results are presented in Table 3 below (HCT-116 (viability/protein adjusted) and IMR-90).
HCT-116 or IMR90 cells were recovered from sub-confluent plates by trypsinization and 1,000 or 4,000 cells, respectively, were plated in 24-well dishes and incubated overnight at 37° C., 5% CO2. HCT-116 cells were cultured in RPMI-1640, 10% FCS, and IMR90 cells were cultured in Minimum Essential Medium-alpha, 10% FCS. After overnight incubation to allow.adlierence, the media was aspirated from each well and replaced with media containing a test compound at a concentration from 0 to 250 nM, spanning a total of 7 doses. The plates were returned to the incubator and cultured for an additional 3 days. […] After 72-hours incubation with the test compound, the cells were washed twice with 1×PBS, talking special care to remove all residual buffer.
A 5 μM Calcein AM. solution was prepared by dissolving a 50 μg aliquot of Calcein (Molecular Probes catalog # C3100) in 50 μl DMSO. After the Calcein had completely dissolved (10 minutes at room temperature), it was diluted into 10 ml PBS. Calcein/PBS (0.5 ml) was added to each well. The plates were incubated for 75 minutes at 37° C. (protected from light) and the fluorescent signal was read on a fluorescent plate reader (excitation 485/20 and emission 530/25).

Row | Structure (SMILES) | Arrested cell IMR90 (arrested IMR90 cells) | NCI panel ADR-res (ADR-res) | NCI panel MG-MID [1] | pIC50 (HCT-116)
1 | CC(C)c1nn(-c2c(Cl)cccc2Cl)c2nc(Cc3ccc(O)c(CN4CCN(C(C)C)CC4)c3)[nH]c(=O)c12.Cl.Cl [Compound C] | >1.0 | <0.1 | <0.1 µM | 
2 | Cl.Cl.Cl.O=C(Nc1cccc2c1C(=O)c1c-2n[nH]c1-c1ccc(OCCN2CCCC2)cc1)NN1CCOCC1 [Compound I] | >1.0 | <1 | <0.1 µM | > 6.00
3 | CC(C)N1CCN(CCOc2ccc(-c3[nH]nc4c3C(=O)c3c(NC(=O)NN5CCOCC5)cccc3-4)cc2)CC1.Cl.Cl.Cl [E] | >0.1 | <1 | <0.1 µM | > 6.00
4 | CN1CCN(NC(=O)Nc2cccc3c2C(=O)c2c-3n[nH]c2-c2ccc(OCCN3CCCC3)cc2)CC1.Cl.Cl.Cl [F] | >1.0 | <1 | <0.1 µM | 
5 | CCCN(CCOc1ccc(-c2[nH]nc3c2C(=O)c2c(NC(=O)NN4CCOCC4)cccc2-3)cc1)CC1CC1.Cl.Cl.Cl [G] | >0.1 | <1 | <0.1 µM | > 6.00
6 | Cl.Cl.Cl.O=C(Nc1cccc2c1C(=O)c1c-2n[nH]c1-c1ccc(OCCN(CCO)CCO)cc1)NN1CCOCC1 [H] | >1.0 | >10 | <0.1 µM | 
7 | CC(C)N1CCN(Cc2cc(-c3[nH]nc4c3C(=O)c3c(NC(=O)NN5CCOCC5)cccc3-4)ccc2O)CC1.Cl.Cl.Cl.Cl [K] | >1.0 | <10 | <0.1 µM | > 6.00
8 | CN1CCN(NC(=O)Nc2cccc3c2C(=O)c2c-3n[nH]c2-c2ccc(OCCN3CCOCC3)cc2)CC1.Cl.Cl [Q] | >0.1 | <10 | <0.1 µM | > 6.00
